According to the supplement of paper PMC10307832:

compound: O=C(NC1CCNCC1)c1n[nH]cc1NC(=O)c1c(Cl)cccc1Cl [AT-7519] + COc1cc2c(Oc3ccc(NC(=O)C4(C(=O)Nc5ccc(F)cc5)CC4)cc3F)ccnc2cc1OCCCN1CCOCC1 [Foretinib] (partner 0.25 µM); assay: relative viability (nuclei count vs DMSO), 5 days (fraction); higher = more cells survive; settings: first compound 0.01 µM
Outline: (§1)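 Values are medians from duplicate plates. Each reflects relative viability, defined as the nuclei count of treated wells over that of vehicle wells. Lung cancer cell lines in 1536-well plates were pin-tool dosed one day after seeding with one drug alone or with a fixed anchor-drug dose plus five library-drug doses (not always all listed) in √10 steps, then fixed, stained and imaged at 4× after 5 days.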

Cell Line	relative viability
HCC-78	0.564
NCI-H322M	1.01
LCLC-97TM1	0.859
NCI-H2009	1.33
A-427	1.16
NCI-H441	1.04
NCI-H1734	0.897
NCI-H460	1.05
NCI-H2347	0.738
SK-LU-1	0.803
NCI-H1395	0.991
201T	1.2
NCI-H1915	1.07
HCC-827	1.03
LXF-289	0.964
NCI-H23	0.928
NCI-H647	1.27
CAL-12T	1.17

Cell Line	relative viability
NCI-H1651	0.855
EPLC-272H	0.753
NCI-H2228	0.833
NCI-H1355	0.906
NCI-H3122	1.07
NCI-H1437	1.3
NCI-H1755	0.947
NCI-H2023	0.962
HCC-15	1.11
NCI-H1793	0.679
PC-14	0.889
EKVX	0.75
LC-2-ad	0.975
NCI-H1944	0.899
NCI-H1975	0.982
RERF-LC-KJ	0.939
PC-3 [JPC-3]	1.03

same assay, conditions: first compound 0.03162 µM

Cell Line	relative viability
HCC-78	0.563
NCI-H322M	0.932
LCLC-97TM1	0.946
NCI-H2009	1.18
A-427	0.968
NCI-H441	1.01
NCI-H1734	0.809
NCI-H460	0.821
NCI-H2347	0.902
SK-LU-1	0.794
NCI-H1395	1.12
201T	1.05
NCI-H1915	1.1
HCC-827	0.991
LXF-289	1
NCI-H23	0.981
NCI-H647	1.21
CAL-12T	1.19

Cell Line	relative viability
NCI-H1651	0.786
EPLC-272H	0.512
NCI-H2228	0.789
NCI-H1355	0.989
NCI-H3122	0.968
NCI-H1437	1.32
NCI-H1755	0.944
NCI-H2023	0.914
HCC-15	0.941
NCI-H1793	0.646
PC-14	0.856
EKVX	0.902
LC-2-ad	0.984
NCI-H1944	0.855
NCI-H1975	0.953
RERF-LC-KJ	0.813
PC-3 [JPC-3]	1.05

same assay, conditions: first compound 0.3162 µM

Cell Line	relative viability
HCC-78	0.597
NCI-H322M	0.511
LCLC-97TM1	0.817
NCI-H2009	1.27
A-427	1.06
NCI-H441	0.949
NCI-H1734	0.718
NCI-H460	1.05
NCI-H2347	0.8
SK-LU-1	0.88
NCI-H1395	0.961
NCI-H1915	1.07
HCC-827	1.03
LXF-289	0.943
NCI-H23	0.887
NCI-H647	0.985
CAL-12T	0.814

Cell Line	relative viability
NCI-H1651	0.803
EPLC-272H	0.622
NCI-H2228	0.814
NCI-H1355	1.02
NCI-H3122	0.983
NCI-H1437	1.24
NCI-H1755	0.813
NCI-H2023	1.05
HCC-15	0.914
NCI-H1793	0.726
PC-14	0.928
EKVX	0.996
LC-2-ad	0.85
NCI-H1944	0.84
NCI-H1975	0.863
RERF-LC-KJ	0.879
PC-3 [JPC-3]	1.03

same assay, conditions: first compound 1 µM

Cell Line	relative viability
HCC-78	0.575
NCI-H322M	0.456
LCLC-97TM1	0.437
NCI-H2009	0.686
A-427	0.384
NCI-H441	0.63
NCI-H1734	0.429
NCI-H460	0.233
NCI-H2347	0.819
SK-LU-1	0.433
NCI-H1395	0.786
201T	0.809
NCI-H1915	0.807
HCC-827	0.964
LXF-289	0.877
NCI-H23	0.461
NCI-H647	0.889
CAL-12T	0.178

Cell Line	relative viability
NCI-H1651	0.683
EPLC-272H	0.28
NCI-H2228	0.595
NCI-H1355	0.854
NCI-H3122	0.465
NCI-H1437	1.01
NCI-H1755	0.878
NCI-H2023	0.459
HCC-15	0.403
NCI-H1793	0.488
PC-14	0.915
EKVX	0.773
LC-2-ad	0.452
NCI-H1944	0.662
NCI-H1975	0.189
RERF-LC-KJ	0.921
PC-3 [JPC-3]	1.06

compound: C1=CC2=C(C=C(C(=C2N=C1)O)N=NC3=CC4=C(C=C3)C=C(C=C4)S(=O)(=O)O)S(=O)(=O)O + CC1(C)CCC(c2ccc(Cl)cc2)=C(CN2CCN(c3ccc(C(=O)NS(=O)(=O)c4ccc(N[C@H](CCN5CCOCC5)CSc5ccccc5)c(S(=O)(=O)C(F)(F)F)c4)cc3)CC2)C1 [Navitoclax] (partner 0.5 µM); assay: as above; settings: first compound 0.08 µM
Outline: as §1

Cell Line	relative viability
HCC-78	0.776
NCI-H322M	1.35
NCI-H2009	1.19
A-427	1.06
NCI-H441	0.706
NCI-H1734	1.13
NCI-H460	1.2
NCI-H2347	0.898
